Tests used:
[1] = test system: prostaglandin PGE2 levels; assay: PGE2 levels in IL-1β stimulated NHAC cells; format: cell-based; details: IL-1β 10 ng/ml, 24 hours, fractions ≤64 μg/ml
Protocol: (§1) To study the anti-inflammatory activities, assays Fr 1, Fr i, Fr V and Fr Vi were selected and tested at a concentration of ≤64 μg/ml. The assays carried out to measure the 1) Nitric Oxide (NO) levels, 2) prostaglandin PGE2 levels, 3) prostaglandin PGF2α levels. NHAC cells at passage 3, were stimulated first with proinflammatory cytokine IL-1β at a predetermined concentration 10 ng/ml overnight, NHAC Cells were then treated with fractions in the presence of IL-1β 10 ng/ml for 24 hours and cell culture supernatant was collected to measure NO, PGE2 and PGF2α levels. Griess Reagent Kit for Nitrite Determination (Molecular Probes, Invitrogen) was used as per kit instructions. For estimation of PGs, High Sensitivity PGE2 & PGF2α EIA kits (Assay Designs Inc.) were used.

[2] = test system: prostaglandin PGF2α levels; assay: PGF2α levels in IL-1β stimulated NHAC cells; format: cell-based; details: IL-1β 10 ng/ml, 24 hours, fractions 64-32 μg/ml
Protocol: as §1

COc1ccc2c(c1)c(CC(=O)O)c(C)n2C(=O)c1ccc(Cl)cc1 [Indomethacin]
IL-1β induced PGE2 levels [1]: significantly reduced
IL-1β induced PGF2α levels [2]: significantly reduced

— patent US10376550B2, “Nutraceutical composition and methods of use” (Dacy Tech Party Ltd., priority 2007, dated 2019)
